Here are results for 6 compounds from ChEMBL document CHEMBL2417448, “Cytotoxic triterpenoids from Lysimachia parvifolia” (Eur J Med Chem, 2013).

What is called IC50 is the concentration at which inhibition is half-maximal. Read a low IC50 as inhibition by little substance.

Common to all, as to format: functional, cell-based
One assay has as its system SGC-7901. As to the kind of experiment: Cytotoxicity against human SGC7901 cells after 24 hrs by MTT assay. To be noted: SGC-7901, 24 h.
The test system of another assay is HepG2. Nature of the assay: Cytotoxicity against human HepG2 cells after 24 hrs by MTT assay. Particulars: HepG2, 24 h.
For another assay, the system named is HL-60. As to the kind of experiment: Cytotoxicity against human HL60 cells after 24 hrs by MTT assay. To be noted: HL-60, 24 h. A general note: Tetrazolium assays rely on reduction of a dye to a coloured formazan, in cell work by metabolically active cells.
The nature of assay [1]: Cytotoxicity against human Bel7404 cells after 24 hrs by MTT assay. Particulars: BEL-7404, 24 h.
The next assay relates to U-266. As to the kind of experiment: Cytotoxicity against human U266 cells after 24 hrs by MTT assay. Particulars: U-266, 24 h.
The subject of a further assay is A549. As to the kind of experiment: Cytotoxicity against human A549 cells after 24 hrs by MTT assay. Particulars: A549, 24 h.

Molecules are shown by their SMILES.

As to `CC1(C)C[C@@H]2[C@]3(CO[C@@]24CC[C@@H]2[C@@]5(C)CC[C@H](O)[C@@](C)(CO)[C@@H]5CC[C@@]2(C)[C@]4(C)CC3=O)[C@@H](O)C1`, the IC50 (in the assay with SGC-7901; with HepG2; with HL-60; in assay [1]; with U-266; in the assay with A549) was over 100 µM each time.
Consider `CC1(C)C[C@@H]2[C@]3(CO[C@@]24CC[C@@H]2[C@@]5(C)CCC(=O)[C@@](C)(CO)[C@@H]5CC[C@@]2(C)[C@]4(C)CC3=O)[C@@H](O)C1`, for which the IC50 (in the assay with SGC-7901; in the assay with HepG2; in the assay with HL-60; in assay [1]; with U-266; in the assay on A549) was over 100 µM throughout.
As for `CC(=O)O[C@H]1CC(C)(C)C[C@@H]2[C@]13CO[C@@]21CC[C@@H]2[C@@]4(C)CC[C@H](O[C@@H]5OC[C@H](O[C@@H]6O[C@H](CO)[C@@H](O)[C@H](O)[C@H]6O)[C@H](O)[C@H]5O[C@@H]5O[C@H](CO)[C@@H](O)[C@H](O)[C@H]5O[C@@H]5OC[C@@H](O)[C@H](O)[C@H]5O)C(C)(C)[C@@H]4CC[C@@]2(C)[C@]1(C)C[C@H]3O`, the IC50 in the assay with SGC-7901 was determined as 7.69 µM; in the assay on HepG2, 4.92 µM; with HL-60, 6.8 µM; in assay [1], 5.88 µM; in the assay on U-266, 8.83 µM; in the assay with A549 it was 5.28 µM.
In the case of `CC1(C)CC[C@]23CO[C@@]4(CC[C@@H]5[C@@]6(C)CC[C@H](O[C@@H]7OC[C@H](O)[C@H](O)[C@H]7O)[C@@](C)(CO)[C@@H]6CC[C@@]5(C)[C@]4(C)CC2=O)[C@@H]3C1` [ANAGALLIGENONE-3-O-ALPHA-L-ARABINOPYRANOSIDE], the IC50 with SGC-7901 is over 100 µM; in the assay on HepG2, 55.4 µM; in the assay on HL-60 it was over 100 µM; in assay [1], 75.5 µM; in the assay with U-266 it was 94.8 µM; in the assay with A549, 85.3 µM.
As for `CC1(C)CC[C@]23CO[C@@]4(CC[C@@H]5[C@@]6(C)CC[C@H](O[C@@H]7OC[C@H](O[C@@H]8O[C@H](CO)[C@@H](O)[C@H](O)[C@H]8O)[C@H](O)[C@H]7O)[C@@](C)(CO)[C@@H]6CC[C@@]5(C)[C@]4(C)CC2=O)[C@@H]3C1` [ANAGALLIGENONE-3-O-[BETA-D-GLUCOPYRANOSYL(1->4)-ALPHA-L-ARABINOPYRANOSIDE], the IC50 in the assay on SGC-7901 was 19 µM; in the assay on HepG2, 16.2 µM; in the assay with HL-60 it was 16.3 µM; in assay [1], 17.3 µM; with U-266, 13.9 µM; in the assay on A549 it was 14.6 µM.
Regarding `CC1(C)CC[C@]23CO[C@@]4(CC[C@@H]5[C@@]6(C)CC[C@H](O[C@@H]7OC[C@H](O[C@@H]8O[C@H](CO)[C@@H](O)[C@H](O)[C@H]8O[C@@H]8OC[C@@H](O)[C@H](O)[C@H]8O)[C@H](O)[C@H]7O)[C@@](C)(CO)[C@@H]6CC[C@@]5(C)[C@]4(C)CC2=O)[C@@H]3C1` [ANAGALLIGENONE-3-O-[BETA-D-XYLOPYRANOSYL(1->2)-BETA-D-GLUCOPYRANOSYL(1->4)-ALPHA-L-ARABINOPYRANOSIDE]], the IC50 turned out to be 9.24 µM with SGC-7901; 8.87 µM with HepG2; 10.3 µM in the assay on HL-60; 9.14 µM in assay [1]; 10.4 µM in the assay with U-266; 10.9 µM with A549.
